The source made the active and inactive calls.
What was measured:
[1] = target: Tyrosine-protein kinase ABL2 (Homo sapiens, UniProt P42684)
Adenosine kinase = Adenosine kinase (Homo sapiens, UniProt P55263)
[2] = target: BMP-2-inducible protein kinase (Homo sapiens, UniProt Q9NSY1)
[3] = target: Casein kinase I isoform gamma-1 (Homo sapiens, UniProt Q9HCP0)
[4] = target: T1, Delta(24)-sterol reductase (Homo sapiens, UniProt Q15392)
T1 sequence (Q15392 whole entry): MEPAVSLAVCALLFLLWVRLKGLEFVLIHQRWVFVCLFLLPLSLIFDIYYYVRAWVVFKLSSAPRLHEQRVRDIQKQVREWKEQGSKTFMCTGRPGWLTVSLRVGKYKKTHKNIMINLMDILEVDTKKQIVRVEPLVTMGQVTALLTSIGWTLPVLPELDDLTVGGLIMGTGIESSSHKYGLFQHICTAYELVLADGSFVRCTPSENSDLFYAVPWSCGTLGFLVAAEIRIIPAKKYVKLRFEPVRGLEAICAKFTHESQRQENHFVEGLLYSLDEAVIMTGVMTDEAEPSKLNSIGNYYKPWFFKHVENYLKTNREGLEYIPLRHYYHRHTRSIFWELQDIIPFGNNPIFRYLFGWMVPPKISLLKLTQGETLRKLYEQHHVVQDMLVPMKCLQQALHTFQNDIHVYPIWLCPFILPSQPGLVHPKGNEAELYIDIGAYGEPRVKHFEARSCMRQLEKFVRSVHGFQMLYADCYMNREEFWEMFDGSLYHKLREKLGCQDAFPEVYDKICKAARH

[5] = target: MAP kinase-activated protein kinase 2 (Homo sapiens, UniProt P49137)
[6] = target: T2, Serine/threonine-protein kinase NLK (Homo sapiens, UniProt Q9UBE8)
T2 sequence (Q9UBE8 whole entry): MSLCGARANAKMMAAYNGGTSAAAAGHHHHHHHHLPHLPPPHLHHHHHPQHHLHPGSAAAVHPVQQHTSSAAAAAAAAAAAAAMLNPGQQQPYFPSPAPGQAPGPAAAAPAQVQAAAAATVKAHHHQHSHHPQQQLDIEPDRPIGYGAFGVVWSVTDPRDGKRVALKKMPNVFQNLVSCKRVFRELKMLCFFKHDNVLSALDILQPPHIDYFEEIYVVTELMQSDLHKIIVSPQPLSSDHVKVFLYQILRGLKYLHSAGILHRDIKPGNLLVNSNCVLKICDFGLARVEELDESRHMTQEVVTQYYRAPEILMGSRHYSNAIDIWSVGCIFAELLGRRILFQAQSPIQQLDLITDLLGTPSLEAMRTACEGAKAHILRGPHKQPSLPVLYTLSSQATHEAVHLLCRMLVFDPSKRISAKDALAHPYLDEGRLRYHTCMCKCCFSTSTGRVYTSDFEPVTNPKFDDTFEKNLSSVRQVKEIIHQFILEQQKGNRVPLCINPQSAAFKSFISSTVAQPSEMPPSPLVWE

[7] = target: T3, NUAK family SNF1-like kinase 2 (Homo sapiens, UniProt Q9H093)
T3 sequence (Q9H093 whole entry): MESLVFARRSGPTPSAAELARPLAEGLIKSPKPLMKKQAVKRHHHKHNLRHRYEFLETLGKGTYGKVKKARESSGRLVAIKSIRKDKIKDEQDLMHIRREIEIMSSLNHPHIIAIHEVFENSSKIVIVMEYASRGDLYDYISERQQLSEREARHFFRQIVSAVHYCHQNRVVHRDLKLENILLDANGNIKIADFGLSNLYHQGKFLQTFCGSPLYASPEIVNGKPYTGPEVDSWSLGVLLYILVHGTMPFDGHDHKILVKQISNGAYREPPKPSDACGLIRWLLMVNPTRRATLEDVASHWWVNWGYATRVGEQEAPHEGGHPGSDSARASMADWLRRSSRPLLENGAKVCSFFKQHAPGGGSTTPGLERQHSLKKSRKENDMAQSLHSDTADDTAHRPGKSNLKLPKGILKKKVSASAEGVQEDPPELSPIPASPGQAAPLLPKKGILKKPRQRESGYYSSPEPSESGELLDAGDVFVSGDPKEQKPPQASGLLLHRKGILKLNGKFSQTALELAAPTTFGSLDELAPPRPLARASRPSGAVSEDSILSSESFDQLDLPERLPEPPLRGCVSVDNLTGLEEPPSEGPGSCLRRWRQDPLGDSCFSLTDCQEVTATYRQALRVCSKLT

[8] = target: Protein kinase C delta type (Homo sapiens, UniProt Q05655)
[9] = target: T4, Ras-related protein Rab-27A (Homo sapiens, UniProt P51159)
T4 sequence (P51159 whole entry): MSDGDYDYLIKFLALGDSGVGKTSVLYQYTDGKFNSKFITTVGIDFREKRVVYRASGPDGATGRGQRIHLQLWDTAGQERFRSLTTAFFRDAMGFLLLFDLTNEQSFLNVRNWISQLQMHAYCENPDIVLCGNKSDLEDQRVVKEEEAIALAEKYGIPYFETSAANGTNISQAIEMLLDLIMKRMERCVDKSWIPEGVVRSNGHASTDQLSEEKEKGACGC

[10] = target: T5, Tyrosine-protein kinase Tec (Homo sapiens, UniProt P42680)
T5 sequence (P42680 whole entry): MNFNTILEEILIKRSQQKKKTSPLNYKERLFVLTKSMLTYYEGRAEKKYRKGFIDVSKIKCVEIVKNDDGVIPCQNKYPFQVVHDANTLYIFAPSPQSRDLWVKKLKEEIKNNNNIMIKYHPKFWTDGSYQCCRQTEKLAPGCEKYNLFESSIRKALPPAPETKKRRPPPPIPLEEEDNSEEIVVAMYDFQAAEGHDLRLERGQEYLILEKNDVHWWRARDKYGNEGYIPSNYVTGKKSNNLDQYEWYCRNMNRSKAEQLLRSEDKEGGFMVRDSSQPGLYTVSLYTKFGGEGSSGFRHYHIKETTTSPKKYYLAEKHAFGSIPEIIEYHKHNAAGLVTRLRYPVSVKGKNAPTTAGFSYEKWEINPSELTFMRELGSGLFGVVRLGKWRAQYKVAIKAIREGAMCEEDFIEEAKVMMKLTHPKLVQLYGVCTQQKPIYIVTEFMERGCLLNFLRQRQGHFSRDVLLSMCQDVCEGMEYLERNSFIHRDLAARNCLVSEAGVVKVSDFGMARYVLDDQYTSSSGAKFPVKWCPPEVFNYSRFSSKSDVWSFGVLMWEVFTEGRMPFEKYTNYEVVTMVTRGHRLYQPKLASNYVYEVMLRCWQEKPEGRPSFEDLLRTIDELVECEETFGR
Further: in the data inactive means no Kd found up to 30 µM.

Sequence of BMP-2-inducible protein kinase (Q9NSY1 whole entry, canonical isoform): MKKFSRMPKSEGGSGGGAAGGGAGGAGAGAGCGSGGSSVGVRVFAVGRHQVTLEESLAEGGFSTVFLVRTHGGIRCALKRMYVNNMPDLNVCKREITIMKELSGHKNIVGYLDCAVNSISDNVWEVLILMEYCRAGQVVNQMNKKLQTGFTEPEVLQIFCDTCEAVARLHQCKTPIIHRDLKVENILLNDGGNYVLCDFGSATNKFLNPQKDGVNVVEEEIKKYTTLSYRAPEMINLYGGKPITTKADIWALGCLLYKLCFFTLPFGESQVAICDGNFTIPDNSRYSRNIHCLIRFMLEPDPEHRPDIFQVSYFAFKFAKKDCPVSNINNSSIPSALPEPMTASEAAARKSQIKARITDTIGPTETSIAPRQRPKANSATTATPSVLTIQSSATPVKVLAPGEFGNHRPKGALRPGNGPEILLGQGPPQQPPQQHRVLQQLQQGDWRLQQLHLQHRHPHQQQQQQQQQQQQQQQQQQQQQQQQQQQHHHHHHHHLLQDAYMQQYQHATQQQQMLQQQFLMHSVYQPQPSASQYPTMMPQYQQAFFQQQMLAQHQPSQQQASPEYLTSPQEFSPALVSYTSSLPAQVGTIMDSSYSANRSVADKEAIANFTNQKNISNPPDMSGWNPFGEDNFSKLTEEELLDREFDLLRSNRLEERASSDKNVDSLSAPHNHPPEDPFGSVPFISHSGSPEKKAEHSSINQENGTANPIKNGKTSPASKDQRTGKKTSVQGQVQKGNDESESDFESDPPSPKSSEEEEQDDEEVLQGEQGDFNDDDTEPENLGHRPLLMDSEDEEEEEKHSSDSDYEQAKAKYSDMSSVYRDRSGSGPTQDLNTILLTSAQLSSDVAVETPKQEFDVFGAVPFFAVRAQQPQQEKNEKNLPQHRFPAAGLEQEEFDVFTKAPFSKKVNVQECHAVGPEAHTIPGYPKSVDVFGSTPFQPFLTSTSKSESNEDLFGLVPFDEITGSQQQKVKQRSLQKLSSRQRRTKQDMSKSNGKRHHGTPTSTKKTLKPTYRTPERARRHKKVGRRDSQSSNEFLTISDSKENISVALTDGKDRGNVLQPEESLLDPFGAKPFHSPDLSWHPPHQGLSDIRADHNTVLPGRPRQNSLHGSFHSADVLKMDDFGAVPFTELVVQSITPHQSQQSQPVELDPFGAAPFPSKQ
Sequence of MAP kinase-activated protein kinase 2 (P49137 whole entry): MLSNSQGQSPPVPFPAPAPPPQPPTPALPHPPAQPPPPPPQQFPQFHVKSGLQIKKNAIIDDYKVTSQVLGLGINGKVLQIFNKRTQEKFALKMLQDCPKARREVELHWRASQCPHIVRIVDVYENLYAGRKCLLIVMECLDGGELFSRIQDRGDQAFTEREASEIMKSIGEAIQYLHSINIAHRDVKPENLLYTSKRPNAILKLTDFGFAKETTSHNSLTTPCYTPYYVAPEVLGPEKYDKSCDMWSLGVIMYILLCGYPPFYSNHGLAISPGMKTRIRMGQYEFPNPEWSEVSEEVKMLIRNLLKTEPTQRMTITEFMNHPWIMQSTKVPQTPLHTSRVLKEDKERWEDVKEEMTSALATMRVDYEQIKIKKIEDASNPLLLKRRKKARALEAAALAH
Sequence of Adenosine kinase (P55263 whole entry): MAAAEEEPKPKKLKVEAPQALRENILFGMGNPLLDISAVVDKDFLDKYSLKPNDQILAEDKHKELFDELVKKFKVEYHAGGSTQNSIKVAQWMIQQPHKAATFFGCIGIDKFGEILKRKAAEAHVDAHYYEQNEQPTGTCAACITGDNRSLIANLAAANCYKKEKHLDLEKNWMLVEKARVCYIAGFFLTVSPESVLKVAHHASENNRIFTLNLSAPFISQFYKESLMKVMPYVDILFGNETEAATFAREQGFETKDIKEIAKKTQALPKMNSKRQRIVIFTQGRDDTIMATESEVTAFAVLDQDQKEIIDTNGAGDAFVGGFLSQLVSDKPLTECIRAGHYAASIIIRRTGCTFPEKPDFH
Sequence of Protein kinase C delta type (Q05655 whole entry): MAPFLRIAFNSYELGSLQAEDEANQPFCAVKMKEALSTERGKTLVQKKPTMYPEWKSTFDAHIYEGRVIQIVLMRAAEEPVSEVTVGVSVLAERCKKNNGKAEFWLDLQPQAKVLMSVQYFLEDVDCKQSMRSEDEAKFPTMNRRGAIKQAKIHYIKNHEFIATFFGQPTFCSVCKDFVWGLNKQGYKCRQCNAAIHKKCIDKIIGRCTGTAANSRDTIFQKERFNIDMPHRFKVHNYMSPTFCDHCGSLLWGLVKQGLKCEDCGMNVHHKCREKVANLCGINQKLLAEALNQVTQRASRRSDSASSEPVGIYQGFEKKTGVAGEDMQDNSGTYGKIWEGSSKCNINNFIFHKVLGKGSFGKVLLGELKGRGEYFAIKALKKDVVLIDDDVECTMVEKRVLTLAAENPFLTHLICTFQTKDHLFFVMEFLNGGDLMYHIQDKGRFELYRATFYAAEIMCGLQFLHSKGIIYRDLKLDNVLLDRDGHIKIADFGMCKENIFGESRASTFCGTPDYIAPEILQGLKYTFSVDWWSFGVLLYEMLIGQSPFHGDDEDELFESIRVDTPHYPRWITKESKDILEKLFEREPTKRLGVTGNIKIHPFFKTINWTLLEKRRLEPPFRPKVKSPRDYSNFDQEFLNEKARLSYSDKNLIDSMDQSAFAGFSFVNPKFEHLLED
Sequence of Tyrosine-protein kinase ABL2 (P42684 whole entry): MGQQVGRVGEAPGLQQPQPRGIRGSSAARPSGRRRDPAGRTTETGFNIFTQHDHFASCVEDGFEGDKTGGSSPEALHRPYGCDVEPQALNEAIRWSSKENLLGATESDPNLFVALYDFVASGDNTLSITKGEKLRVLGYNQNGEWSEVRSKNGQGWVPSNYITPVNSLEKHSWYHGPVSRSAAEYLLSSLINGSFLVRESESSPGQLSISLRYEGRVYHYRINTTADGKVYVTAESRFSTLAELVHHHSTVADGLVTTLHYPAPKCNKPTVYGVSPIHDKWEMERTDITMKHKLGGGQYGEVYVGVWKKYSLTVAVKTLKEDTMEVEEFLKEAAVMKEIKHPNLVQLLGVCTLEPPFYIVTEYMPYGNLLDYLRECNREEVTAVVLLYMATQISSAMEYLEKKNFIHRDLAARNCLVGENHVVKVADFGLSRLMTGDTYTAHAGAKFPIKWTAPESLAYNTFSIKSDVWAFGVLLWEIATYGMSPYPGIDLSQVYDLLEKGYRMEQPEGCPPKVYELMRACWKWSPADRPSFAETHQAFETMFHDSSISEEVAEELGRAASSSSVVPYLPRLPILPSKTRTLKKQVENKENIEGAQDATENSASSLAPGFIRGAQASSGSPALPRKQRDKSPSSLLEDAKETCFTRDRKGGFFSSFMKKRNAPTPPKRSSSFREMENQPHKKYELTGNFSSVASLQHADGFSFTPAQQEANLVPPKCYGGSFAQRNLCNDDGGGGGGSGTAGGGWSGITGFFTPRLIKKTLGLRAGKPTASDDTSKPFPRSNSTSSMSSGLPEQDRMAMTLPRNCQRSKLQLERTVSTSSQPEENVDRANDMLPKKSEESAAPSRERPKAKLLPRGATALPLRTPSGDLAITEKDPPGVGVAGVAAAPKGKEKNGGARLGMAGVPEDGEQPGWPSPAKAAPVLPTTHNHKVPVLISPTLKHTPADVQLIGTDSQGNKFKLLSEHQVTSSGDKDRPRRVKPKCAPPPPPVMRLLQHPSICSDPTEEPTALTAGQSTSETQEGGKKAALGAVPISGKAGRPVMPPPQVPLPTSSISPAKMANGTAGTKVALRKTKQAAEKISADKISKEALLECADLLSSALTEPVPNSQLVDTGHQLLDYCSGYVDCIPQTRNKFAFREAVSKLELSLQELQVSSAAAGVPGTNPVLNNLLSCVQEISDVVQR
Sequence of Casein kinase I isoform gamma-1 (Q9HCP0 whole entry, canonical isoform): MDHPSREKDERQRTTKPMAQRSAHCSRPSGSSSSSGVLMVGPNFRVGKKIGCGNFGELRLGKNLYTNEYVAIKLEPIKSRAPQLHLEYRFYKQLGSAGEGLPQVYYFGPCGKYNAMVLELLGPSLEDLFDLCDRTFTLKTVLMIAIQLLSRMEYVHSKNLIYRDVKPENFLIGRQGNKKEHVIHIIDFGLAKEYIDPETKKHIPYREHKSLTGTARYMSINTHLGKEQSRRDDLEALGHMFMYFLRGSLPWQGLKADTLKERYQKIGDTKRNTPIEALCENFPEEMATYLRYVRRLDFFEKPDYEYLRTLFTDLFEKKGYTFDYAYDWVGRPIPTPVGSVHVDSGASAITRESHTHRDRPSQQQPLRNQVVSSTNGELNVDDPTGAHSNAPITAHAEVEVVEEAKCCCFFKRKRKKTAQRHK

Kd [1] | Kd (Adenosine kinase) | Kd [2] | Kd [3] | Kd [4] | Kd [5] | Kd [6] | Kd [7] | Kd [8] | Kd [9] | Kd [10] | SMILES
> 30 µM (inactive) | > 30 µM (inactive) | > 30 µM (inactive) | > 30 µM (inactive) | > 30 µM (inactive) | 0.027 µM (active) | > 30 µM (inactive) | > 30 µM (inactive) | > 30 µM (inactive) | > 30 µM (inactive) | > 30 µM (inactive) | Cc1c(F)cc(C(=O)NC2CC2)cc1-c1ccc(C(=O)NCC(C)(C)C)cn1 [LOSMAPIMOD]
> 30 µM (inactive) | > 30 µM (inactive) | > 30 µM (inactive) | > 30 µM (inactive) | > 30 µM (inactive) | > 30 µM (inactive) | > 30 µM (inactive) | > 30 µM (inactive) | > 30 µM (inactive) | > 30 µM (inactive) | > 30 µM (inactive) | CCn1c(=O)c(-c2cc[nH]n2)cc2c(C)nc(N)nc21 [VOXTALISIB]
> 30 µM (inactive) | > 30 µM (inactive) | > 30 µM (inactive) | > 30 µM (inactive) | > 30 µM (inactive) | > 30 µM (inactive) | > 30 µM (inactive) | > 30 µM (inactive) | > 30 µM (inactive) | > 30 µM (inactive) | > 30 µM (inactive) | CC(=O)Nc1cccc(-n2c(=O)n(C3CC3)c(=O)c3c(Nc4ccc(I)cc4F)n(C)c(=O)c(C)c32)c1 [TRAMETINIB]
14.9 µM (active) | > 30 µM (inactive) | > 30 µM (inactive) | > 30 µM (inactive) | > 30 µM (inactive) | > 30 µM (inactive) | > 30 µM (inactive) | > 30 µM (inactive) | > 30 µM (inactive) | > 30 µM (inactive) | > 30 µM (inactive) | CCN1CCN(Cc2ccc(-c3cc4c(N[C@H](C)c5ccccc5)ncnc4[nH]3)cc2)CC1 [AEE-788]
> 30 µM (inactive) | > 30 µM (inactive) | 8.53 µM (active) | > 30 µM (inactive) | > 30 µM (inactive) | > 30 µM (inactive) | > 30 µM (inactive) | > 30 µM (inactive) | > 30 µM (inactive) | > 30 µM (inactive) | > 30 µM (inactive) | CN1CCC(CNc2ccc3ncc(-c4cccc(OC(F)(F)F)c4)n3n2)CC1 [SGI-1776]
> 30 µM (inactive) | > 30 µM (inactive) | > 30 µM (inactive) | > 30 µM (inactive) | > 30 µM (inactive) | > 30 µM (inactive) | > 30 µM (inactive) | > 30 µM (inactive) | > 30 µM (inactive) | > 30 µM (inactive) | > 30 µM (inactive) | O=c1sn(-c2cccc3ccccc23)c(=O)n1Cc1ccccc1 [TIDEGLUSIB]
> 30 µM (inactive) | > 30 µM (inactive) | > 30 µM (inactive) | > 30 µM (inactive) | > 30 µM (inactive) | > 30 µM (inactive) | > 30 µM (inactive) | > 30 µM (inactive) | > 30 µM (inactive) | > 30 µM (inactive) | > 30 µM (inactive) | COc1cc(OC)c(/C=C/S(=O)(=O)Cc2ccc(OC)c(NCC(=O)O)c2)c(OC)c1 [RIGOSERTIB]
> 30 µM (inactive) | > 30 µM (inactive) | > 30 µM (inactive) | > 30 µM (inactive) | > 30 µM (inactive) | > 30 µM (inactive) | > 30 µM (inactive) | > 30 µM (inactive) | > 30 µM (inactive) | > 30 µM (inactive) | > 30 µM (inactive) | CN(C)C(=O)c1cc2cnc(Nc3ccc(N4CCNCC4)cn3)nc2n1C1CCCC1 [RIBOCICLIB]
> 30 µM (inactive) | > 30 µM (inactive) | > 30 µM (inactive) | > 30 µM (inactive) | > 30 µM (inactive) | > 30 µM (inactive) | > 30 µM (inactive) | > 30 µM (inactive) | > 30 µM (inactive) | > 30 µM (inactive) | > 30 µM (inactive) | CC[C@H](Nc1ncnc2[nH]cnc12)c1nc2cccc(F)c2c(=O)n1-c1ccccc1 [IDELALISIB]
> 30 µM (inactive) | > 30 µM (inactive) | > 30 µM (inactive) | > 30 µM (inactive) | > 30 µM (inactive) | 14.7 µM (active) | 0.732 µM (active) | > 30 µM (inactive) | > 30 µM (inactive) | > 30 µM (inactive) | > 30 µM (inactive) | COC(=O)N[C@@H](C)CNc1nccc(-c2cn(C(C)C)nc2-c2cc(Cl)cc(NS(C)(=O)=O)c2F)n1 [ENCORAFENIB]
> 30 µM (inactive) | > 30 µM (inactive) | > 30 µM (inactive) | > 30 µM (inactive) | > 30 µM (inactive) | > 30 µM (inactive) | > 30 µM (inactive) | > 30 µM (inactive) | > 30 µM (inactive) | > 30 µM (inactive) | > 30 µM (inactive) | Cn1cc(-c2ccc3nnc(C(F)(F)c4ccc5ncccc5c4)n3n2)cn1 [JNJ-38877605]

SMILES | Kd [1] | Kd (Adenosine kinase) | Kd [2] | Kd [3] | Kd [4] | Kd [5] | Kd [6] | Kd [7] | Kd [8] | Kd [9] | Kd [10]
C=CC(=O)N1CCC(Oc2cc3c(Nc4ccc(Cl)c(Cl)c4F)ncnc3cc2OC)CC1 [POZIOTINIB] | > 30 µM (inactive) | > 30 µM (inactive) | > 30 µM (inactive) | > 30 µM (inactive) | > 30 µM (inactive) | > 30 µM (inactive) | > 30 µM (inactive) | > 30 µM (inactive) | > 30 µM (inactive) | > 30 µM (inactive) | 0.069 µM (active)
CN1CC[C@@H](c2c(O)cc(O)c3c(=O)cc(-c4ccccc4Cl)oc23)[C@@H]1CO | > 30 µM (inactive) | > 30 µM (inactive) | > 30 µM (inactive) | > 30 µM (inactive) | > 30 µM (inactive) | > 30 µM (inactive) | 1.48 µM | > 30 µM (inactive) | 2.39 µM (active) | > 30 µM (inactive) | > 30 µM (inactive)

Reference: ChEMBL document CHEMBL3991601, “The target landscape of clinical kinase drugs” (Science, 2017)
